Laboratory results taken from paper PMC10848769, “Tartrolon E, a secondary metabolite of a marine symbiotic bacterium, is a potent inhibitor of asexual and sexual Plasmodium falciparum” (Antimicrobial Agents and Chemotherapy, 2024).
Read-outs that look alike come from different tables or passages of the source.

What was measured:
[1] = tested on: Pf NF54 late-stage gametocytes (stage III to stage V); test: Late-stage gametocyte viability assay (alamarBlue); type: cell-based; details: Plasmodium falciparum, 72 h, 3 days treatment, three independent experiments
Experimental: (§1) Gametocytes of Pf NF54, the competent gametocyte-producing clone, were treated with TrtE as previously described ([15], [16]). […] To validate the in vitro gametocytocidal activity of TrtE, mosquito infectivity assays were conducted. […] Oocyst development in mosquitoes represents a significant bottleneck in the life cycle of Plasmodium spp. where transmission can be efficiently interrupted ([18]).
Fig 3 TrtE activity against gametocytes. Enriched, late-stage gametocytes were treated for 3 days with TrtE and then viability-tested with alamarBlue (Invitrogen) ([15], [16]). Three independent experiments (squares, triangles, and diamonds) determined the average EC50 to be 140 ± 42 nM.

[2] = tested on: P. falciparum 3D7 asexual blood stages; test: Standard 72-hour inhibitor-response (parasite proliferation) assay; type: cell-based; details: Plasmodium falciparum; 3D7, 72-hour assay; read-out: 3D7 EC50
[3] = tested on: P. falciparum NF54 oocyst development in Anopheles dirus mosquitoes; test: Mosquito infectivity assay (standard membrane feeding, oocyst count); type: in vivo, Plasmodium falciparum; details: 100 nM TrtE on late-stage gametocytes, fed to Anopheles dirus, oocysts counted after 9 days, four independent experiments, P = 0.016
Experimental: as §1
Fig 4 TrtE inhibition of oocyst development in mosquitoes. Late-stage Pf NF54 gametocytes were incubated with 100 nM TrtE, the approximate gametocidal EC50, or left untreated. Following incubation and development to stage V, the cultures were fed to female Anopheles dirus mosquitoes using standard membrane feeding techniques. After 9 days, the mosquitoes were dissected, and oocysts were stained and counted. The infection rate was measured as the ratio of mosquitoes with one or more oocysts to the number of dissected mosquitoes. ^*P < 0.05.

Pf 3D7 = test: Parasite growth alongside mammalian cytotoxicity assays; type: cell-based; details: Plasmodium falciparum; 3D7, grown under identical conditions alongside mammalian cells; read-out: EC50 (µM) (95% CI) 3D7
Experimental: (§2) In preliminary experiments to evaluate cytotoxicity to mammalian cells, the murine leukemia L1210 cell line and the human liver cell line HepG2 were grown under identical conditions alongside Pf 3D7. These were treated with TrtE, the chemotherapeutic methotrexate, and DSM265, an inhibitor of parasite dihydroorotate dehydrogenase ([19]).

[4] = tested on: diverse panel of P. falciparum clones; test: Standard growth inhibition assays, whole panel; type: cell-based, Plasmodium falciparum; details: including two artemisinin-resistant clones from Western Cambodia
Experimental: (§3) A diverse panel of P. falciparum clones, collected from four continents with varying genetic backgrounds and well-characterized susceptibilities to novel and existing antimalarials, was treated with TrtE and DHA in standard growth inhibition assays. […] Additional studies are needed to determine whether there is any similarity in mechanism between TrtE and DHA.

asexual parasites = details: preliminary single-step selection, data not shown
[5] = tested on: murine leukemia L1210 cell line; test: In vitro cytotoxicity assay
Experimental: as §2

P. falciparum clone HB3 = test: Standard growth inhibition assay, Pf clone panel; type: cell-based; details: Plasmodium falciparum; clone HB3, Honduras; read-out: EC50 (nM) (95% CI)
Experimental: as §3

P. falciparum clone GMC1 = test: Standard growth inhibition assay, Pf clone panel; type: cell-based; details: Plasmodium falciparum; clone GMC1, Goa, India; read-out: EC50 (nM) (95% CI)
Experimental: as §3

[6] = tested on: P. falciparum clone D10 w/ yDHODH; test: Standard growth inhibition assay, Pf clone panel; type: cell-based; details: Plasmodium falciparum, D10, read-out: EC50 (nM) (95% CI)
Experimental: as §3

P. falciparum clone 3D7 = test: Standard growth inhibition assay, Pf clone panel; type: cell-based; details: Plasmodium falciparum; clone 3D7, Netherlands; read-out: EC50 (nM) (95% CI)
Experimental: as §3

[7] = tested on: P. falciparum clone IPC 3445; test: Standard growth inhibition assay, Pf clone panel; type: cell-based; details: Plasmodium falciparum; clone IPC 3445, Palin, Cambodia; read-out: EC50 (nM) (95% CI)
Experimental: as §3

P. falciparum clone 7G8 = test: Standard growth inhibition assay, Pf clone panel; type: cell-based; details: Plasmodium falciparum; clone 7G8, Brazil; read-out: EC50 (nM) (95% CI)
Experimental: as §3

P. falciparum clone NF54 = test: Standard growth inhibition assay, Pf clone panel; type: cell-based; details: Plasmodium falciparum; clone NF54, Netherlands; read-out: EC50 (nM) (95% CI)
Experimental: as §3

P. falciparum clone Dd2 = test: Standard growth inhibition assay, Pf clone panel; type: cell-based; details: Plasmodium falciparum, DD2, read-out: EC50 (nM) (95% CI)
Experimental: as §3

[8] = tested on: P. falciparum clone TM90C2A; test: Standard growth inhibition assay, Pf clone panel; type: cell-based; details: Plasmodium falciparum, Thailand, read-out: EC50 (nM) (95% CI)
Experimental: as §3

[9] = tested on: P. falciparum clone IPC 5202; test: Standard growth inhibition assay, Pf clone panel; type: cell-based; details: Plasmodium falciparum; clone IPC 5202, Battambang, Cambodia; read-out: EC50 (nM) (95% CI)
Experimental: as §3

P. falciparum clone D6 = test: Standard growth inhibition assay, Pf clone panel; type: cell-based; details: Plasmodium falciparum; clone D6, Sierra Leone; read-out: EC50 (nM) (95% CI)
Experimental: as §3

P. falciparum clone V1/S = test: Standard growth inhibition assay, Pf clone panel; type: cell-based; details: Plasmodium falciparum, Vietnam, read-out: EC50 (nM) (95% CI)
Experimental: as §3

[10] = tested on: human liver cell line HepG2; test: In vitro cytotoxicity assay; type: cell-based; details: for EC50: Homo sapiens
Experimental: as §2

C[C@@H]1CCC2CC(=O)C[C@@H](O)CC/C=C/C=C\CC[C@H](C)OC(=O)[C@@H]3O[B-]45O[C@@H](C(=O)O[C@@H](C)CC/C=C\C=C\CC[C@H](O)CC(=O)CC6CC[C@@H](C)[C@]3(O6)O4)[C@@]1(O2)O5 [Tartrolon E]
EC50 [1]: 140 nM
EC50 [2]: 0.105 nM
Mosquito infection by P. falciparum (infection rate, oocysts) [3]: significantly inhibited mosquito infection
EC50 (Pf 3D7): 0.00016 µM
Concentration inhibiting all clones of the panel [4]: sub-nanomolar concentrations
Hurdle to resistance under drug pressure (asexual parasites): high hurdles to resistance
Concentration inhibiting L1210 growth ([5]; L1210): sub-micromolar concentrations
Selectivity index (EC50 of L1210/EC50 3D7) ([5]; L1210 vs 3D7): 1,438
EC50 ([5]; Mus musculus, L1210, read-out: EC50 (µM) (95% CI) L1210): 0.23 µM
EC50 (P. falciparum clone HB3): 0.13 nM
EC50 (P. falciparum clone GMC1): 0.26 nM
EC50 [6]: 0.19 nM
EC50 (P. falciparum clone 3D7): 0.16 nM
EC50 [7]: 0.73 nM
EC50 (P. falciparum clone 7G8): 0.18 nM
EC50 (P. falciparum clone NF54): 0.2 nM
EC50 (P. falciparum clone Dd2): 0.28 nM
EC50 [8]: 0.16 nM
EC50 [9]: 0.81 nM
EC50 (P. falciparum clone D6): 0.14 nM
EC50 (P. falciparum clone V1/S): 0.31 nM
Selectivity index (EC50 of HepG2/EC50 3D7) ([10]; HepG2 vs 3D7): 444
EC50 ([10]; HepG2, read-out: EC50 (µM) (95% CI) HepG2): 0.071 µM
EC50 ([10]; HepG2, as printed in text, read-out: HepG2 EC50): 0.07 µM
